# Experimental data taken from PubChem BioAssay (NCI).
#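 These data come from cells grown in 96-well plates and exposed to compound for 48 hours at five concentrations. GI50: concentration for 50% inhibition of growth. TGI: concentration producing complete growth inhibition.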
# Columns and labels:
# Assay in all cases: NCI tumour cell line growth inhibition, 48 h
# MDA-MB-231 breast = tested on: MDA-MB-231 breast
# HCT-15 colon = tested on: HCT-15 colon
# RPMI-8226 leukemia = tested on: RPMI-8226 leukemia
# OVCAR-8 ovarian = tested on: OVCAR-8 ovarian
# NCI-H460 lung = tested on: NCI-H460 lung
# SK-MEL-2 melanoma = tested on: SK-MEL-2 melanoma
# UO-31 renal = tested on: UO-31 renal
# IGROV1 ovarian = tested on: IGROV1 ovarian
# HT29 colon = tested on: HT29 colon
# MCF7 breast = tested on: MCF7 breast
# SNB-75 CNS = tested on: SNB-75 CNS
# HOP-62 NSCLC = tested on: HOP-62 NSCLC
# HOP-92 NSCLC = tested on: HOP-92 NSCLC
# HCC-2998 colon = tested on: HCC-2998 colon
# A549 NSCLC = tested on: A549 NSCLC
# SK-MEL-5 melanoma = tested on: SK-MEL-5 melanoma
# SN12C renal = tested on: SN12C renal
# OVCAR-4 ovarian = tested on: OVCAR-4 ovarian
# M14 melanoma = tested on: M14 melanoma
# UACC-257 melanoma = tested on: UACC-257 melanoma
# COLO 205 colon = tested on: COLO 205 colon
# MALME-3M melanoma = tested on: MALME-3M melanoma
# EKVX NSCLC = tested on: EKVX NSCLC
# SF-268 CNS = tested on: SF-268 CNS
# U251 CNS = tested on: U251 CNS
# LOX IMVI melanoma = tested on: LOX IMVI melanoma
# SW-620 colon = tested on: SW-620 colon
# UACC-62 melanoma = tested on: UACC-62 melanoma
# A498 renal = tested on: A498 renal
# NCI-H226 lung = tested on: NCI-H226 lung
# OVCAR-3 ovarian = tested on: OVCAR-3 ovarian
# SK-MEL-28 melanoma = tested on: SK-MEL-28 melanoma
# K-562 leukemia = tested on: K-562 leukemia
# T-47D breast = tested on: T-47D breast
# OVCAR-5 ovarian = tested on: OVCAR-5 ovarian
# PC-3 prostate = tested on: PC-3 prostate
# ACHN renal = tested on: ACHN renal
# SK-OV-3 ovarian = tested on: SK-OV-3 ovarian
# NCI-H23 lung = tested on: NCI-H23 lung
# TK-10 renal = tested on: TK-10 renal
# SR leukemia = tested on: SR leukemia
# HL-60(TB) leukemia = tested on: HL-60(TB) leukemia
# NCI/ADR-RES ovarian = tested on: NCI/ADR-RES ovarian
# RXF 393 renal = tested on: RXF 393 renal
# 786-0 renal = tested on: 786-0 renal
# CAKI-1 renal = tested on: CAKI-1 renal
# NCI-H522 lung = tested on: NCI-H522 lung
# KM12 colon = tested on: KM12 colon
# SNB-19 CNS = tested on: SNB-19 CNS
# HCT-116 colon = tested on: HCT-116 colon
# MOLT-4 leukemia = tested on: MOLT-4 leukemia
# SF-295 CNS = tested on: SF-295 CNS
# HS 578T breast = tested on: HS 578T breast
# CCRF-CEM leukemia = tested on: CCRF-CEM leukemia
# DU-145 prostate = tested on: DU-145 prostate
# SF-539 CNS = tested on: SF-539 CNS
# MDA-MB-435 = tested on: MDA-MB-435
smiles,measurement,setting,value
COc1ccccc1C1C2=C(COC2=O)OC(C)(C)Oc2cc3c(cc21)OCO3 (stereo not given),TGI,MDA-MB-231 breast,> 32.6 µM
same,TGI,HCT-15 colon,> 100 µM
same,TGI,RPMI-8226 leukemia,> 60.7 µM
same,TGI,OVCAR-8 ovarian,> 100 µM
same,TGI,NCI-H460 lung,> 40.3 µM
same,TGI,SK-MEL-2 melanoma,> 73.7 µM
same,TGI,UO-31 renal,> 100 µM
same,TGI,IGROV1 ovarian,> 87.1 µM
same,TGI,HT29 colon,17.3 µM
same,TGI,MCF7 breast,> 31 µM
same,TGI,SNB-75 CNS,8.42 µM
same,TGI,HOP-62 NSCLC,> 65.4 µM
same,TGI,HOP-92 NSCLC,> 61.5 µM
same,TGI,HCC-2998 colon,> 100 µM
same,TGI,A549 NSCLC,> 100 µM
same,TGI,SK-MEL-5 melanoma,21 µM
same,TGI,SN12C renal,> 91.9 µM
same,TGI,OVCAR-4 ovarian,> 100 µM
same,TGI,M14 melanoma,> 85.1 µM
same,TGI,UACC-257 melanoma,> 51.4 µM
same,TGI,COLO 205 colon,7.5 µM
same,TGI,MALME-3M melanoma,> 100 µM
same,TGI,EKVX NSCLC,26.7 µM
same,TGI,SF-268 CNS,98.1 µM
same,TGI,U251 CNS,> 89.3 µM
same,TGI,LOX IMVI melanoma,> 44.2 µM
same,TGI,SW-620 colon,> 49.8 µM
same,TGI,UACC-62 melanoma,> 25.4 µM
same,TGI,A498 renal,24.7 µM
same,TGI,NCI-H226 lung,> 24.8 µM
same,TGI,OVCAR-3 ovarian,13.3 µM
same,TGI,SK-MEL-28 melanoma,72.1 µM
same,TGI,K-562 leukemia,12.8 µM
same,TGI,T-47D breast,> 100 µM
same,TGI,OVCAR-5 ovarian,> 100 µM
same,TGI,PC-3 prostate,> 29.7 µM
same,TGI,ACHN renal,> 94.1 µM
same,TGI,SK-OV-3 ovarian,> 100 µM
same,TGI,NCI-H23 lung,> 59.2 µM
same,TGI,TK-10 renal,> 28.8 µM
same,TGI,SR leukemia,> 100 µM
same,TGI,HL-60(TB) leukemia,7.8 µM
same,TGI,NCI/ADR-RES ovarian,> 30.8 µM
same,TGI,RXF 393 renal,4.87 µM
same,TGI,786-0 renal,> 68.8 µM
same,TGI,CAKI-1 renal,> 29.8 µM
same,TGI,NCI-H522 lung,> 32 µM
same,TGI,KM12 colon,11.4 µM
same,TGI,SNB-19 CNS,58.2 µM
same,TGI,HCT-116 colon,> 36.1 µM
same,TGI,MOLT-4 leukemia,> 100 µM
same,TGI,SF-295 CNS,> 45.6 µM
same,TGI,HS 578T breast,> 100 µM
same,TGI,CCRF-CEM leukemia,> 100 µM
same,TGI,DU-145 prostate,> 100 µM
COc1ccc(OC)c(/C=C/c2nnc(Nc3ccc(Cl)cc3)o2)c1,GI50,MDA-MB-231 breast,5.23 µM
same,TGI,MDA-MB-231 breast,53.1 µM
same,GI50,HCT-15 colon,34.1 µM
same,TGI,HCT-15 colon,> 100 µM
same,GI50,RPMI-8226 leukemia,> 100 µM
same,TGI,RPMI-8226 leukemia,> 100 µM
same,GI50,OVCAR-8 ovarian,4.91 µM
same,TGI,OVCAR-8 ovarian,21 µM
same,GI50,NCI-H460 lung,3.77 µM
same,TGI,NCI-H460 lung,> 100 µM
same,GI50,SK-MEL-2 melanoma,9.66 µM
same,TGI,SK-MEL-2 melanoma,> 100 µM
same,GI50,UO-31 renal,3.13 µM
same,TGI,UO-31 renal,12.6 µM
same,GI50,IGROV1 ovarian,7.69 µM
same,TGI,IGROV1 ovarian,> 100 µM
same,GI50,HT29 colon,9.44 µM
same,TGI,HT29 colon,28.3 µM
same,GI50,MCF7 breast,20.7 µM
same,TGI,MCF7 breast,> 100 µM
same,GI50,SNB-75 CNS,2.26 µM
same,TGI,SNB-75 CNS,7.94 µM
same,GI50,SF-539 CNS,11.8 µM
same,TGI,SF-539 CNS,60.5 µM
same,GI50,HOP-62 NSCLC,2.71 µM
same,TGI,HOP-62 NSCLC,7.68 µM
same,GI50,HCC-2998 colon,> 100 µM
same,TGI,HCC-2998 colon,> 100 µM
same,GI50,A549 NSCLC,3.67 µM
same,TGI,A549 NSCLC,17.8 µM
same,GI50,SK-MEL-5 melanoma,7.17 µM
same,TGI,SK-MEL-5 melanoma,> 100 µM
same,GI50,SN12C renal,4.21 µM
same,TGI,SN12C renal,> 100 µM
same,GI50,OVCAR-4 ovarian,2.44 µM
same,TGI,OVCAR-4 ovarian,6.76 µM
same,GI50,M14 melanoma,20.7 µM
same,TGI,M14 melanoma,> 100 µM
same,GI50,UACC-257 melanoma,21.3 µM
same,TGI,UACC-257 melanoma,> 100 µM
same,GI50,COLO 205 colon,16.6 µM
same,TGI,COLO 205 colon,> 100 µM
same,GI50,MALME-3M melanoma,9.87 µM
same,TGI,MALME-3M melanoma,52.4 µM
same,GI50,EKVX NSCLC,40.5 µM
same,TGI,EKVX NSCLC,> 100 µM
same,GI50,SF-268 CNS,7.6 µM
same,TGI,SF-268 CNS,37.9 µM
same,GI50,U251 CNS,3.81 µM
same,TGI,U251 CNS,14.3 µM
same,GI50,LOX IMVI melanoma,7.91 µM
same,TGI,LOX IMVI melanoma,> 100 µM
same,GI50,SW-620 colon,18.3 µM
same,TGI,SW-620 colon,> 100 µM
same,GI50,UACC-62 melanoma,16.2 µM
same,TGI,UACC-62 melanoma,> 100 µM
same,GI50,A498 renal,1.87 µM
same,TGI,A498 renal,7.76 µM
same,GI50,OVCAR-3 ovarian,3.55 µM
same,TGI,OVCAR-3 ovarian,15.9 µM
same,GI50,SK-MEL-28 melanoma,26.8 µM
same,TGI,SK-MEL-28 melanoma,> 100 µM
same,GI50,K-562 leukemia,92.8 µM
same,TGI,K-562 leukemia,> 100 µM
same,GI50,T-47D breast,2.54 µM
same,TGI,T-47D breast,> 100 µM
same,GI50,OVCAR-5 ovarian,32.5 µM
same,TGI,OVCAR-5 ovarian,> 100 µM
same,GI50,PC-3 prostate,13.3 µM
same,TGI,PC-3 prostate,76 µM
same,GI50,ACHN renal,3.29 µM
same,TGI,ACHN renal,19.9 µM
same,GI50,SK-OV-3 ovarian,2.79 µM
same,TGI,SK-OV-3 ovarian,7.85 µM
same,GI50,NCI-H23 lung,21.7 µM
same,TGI,NCI-H23 lung,> 100 µM
same,GI50,TK-10 renal,7.4 µM
same,TGI,TK-10 renal,83.2 µM
same,GI50,SR leukemia,48.2 µM
same,TGI,SR leukemia,> 100 µM
same,GI50,HL-60(TB) leukemia,> 100 µM
same,TGI,HL-60(TB) leukemia,> 100 µM
same,GI50,NCI/ADR-RES ovarian,7.62 µM
same,TGI,NCI/ADR-RES ovarian,98.1 µM
same,GI50,RXF 393 renal,2.71 µM
same,TGI,RXF 393 renal,7.92 µM
same,GI50,MDA-MB-435,37 µM
same,TGI,MDA-MB-435,> 100 µM
same,GI50,786-0 renal,2.67 µM
same,TGI,786-0 renal,7.6 µM
same,GI50,CAKI-1 renal,6.02 µM
same,TGI,CAKI-1 renal,> 100 µM
same,GI50,NCI-H522 lung,7.13 µM
same,TGI,NCI-H522 lung,83.7 µM
same,GI50,KM12 colon,17.4 µM
same,TGI,KM12 colon,> 100 µM
same,GI50,SNB-19 CNS,13.8 µM
same,TGI,SNB-19 CNS,> 100 µM
same,GI50,HCT-116 colon,2.97 µM
same,TGI,HCT-116 colon,13.1 µM
same,GI50,MOLT-4 leukemia,> 100 µM
same,TGI,MOLT-4 leukemia,> 100 µM
same,GI50,SF-295 CNS,6.15 µM
same,TGI,SF-295 CNS,64.5 µM
same,GI50,HS 578T breast,2.71 µM
same,TGI,HS 578T breast,8.01 µM
same,GI50,CCRF-CEM leukemia,> 100 µM
same,TGI,CCRF-CEM leukemia,> 100 µM
same,GI50,DU-145 prostate,11.4 µM
same,TGI,DU-145 prostate,36.9 µM
